How the values were obtained:
Details in all cases: incubation time: 72 h
CAL-120 [1] = test: normalised response (% of control), CellTiter-Glo; higher = more viable cells (100 = DMSO, 0 = benzethonium chloride kill control)
Description: (§1)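 DSRT, 72 h incubation, CellTox Green / CellTiter-Glo readout. Signal is normalised to DMSO and benzethonium chloride controls. Value is the normalised response at the highest dose.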

BT-474 [2] = test: as above
Description: as §1

Hs578T [3] = test: as above
Description: as §1

CAL-51 [4] = test: as above
Description: as §1

HDQ-P1 [5] = test: as above
Description: as §1

CAL-85-1 [6] = test: as above
Description: as §1

MDA-MB-453 [7] = test: as above
Description: as §1

MCF-10A [8] = test: as above
Description: as §1

MDA-MB-231 [9] = test: as above
Description: as §1

DU-4475 [10] = test: as above
Description: as §1

MDA-MB-436 [11] = test: as above
Description: as §1

HCC1937 [12] = test: as above
Description: as §1

MFM-223 [13] = test: as above
Description: as §1

BT-549 [14] = test: as above
Description: as §1

HCC1599 [15] = test: as above
Description: as §1

HCC1143 [16] = test: as above
Description: as §1

MDA-MB-468 [17] = test: as above
Description: as §1

SK-BR-3 = test: as above
Description: as §1

CAL-148 [18] = test: as above
Description: as §1

CAL-120 [19] = test: normalised response (% of control), CellTox Green; higher = less cell death (100 = DMSO, 0 = benzethonium chloride kill control)
In short: (§2)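 For each plate, 0.1 % DMSO was set to 100 and a positive kill control to 0. Breast cancer cell lines (20 µl suspension) were seeded into 384-well plates already holding compound at 5 concentrations in 10-fold steps over a 10,000-fold range chosen per compound, and incubated for 72 h. CellTox Green fluorescence at 485/520 nm was read before CellTiter-Glo luminescence, which followed 10 min at room temperature. Each value is the normalised signal at one concentration.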

BT-474 [20] = test: as above
In short: as §2

Hs578T [21] = test: as above
In short: as §2

CAL-51 [22] = test: as above
In short: as §2

HDQ-P1 [23] = test: as above
In short: as §2

CAL-85-1 [24] = test: as above
In short: as §2

MDA-MB-453 [25] = test: as above
In short: as §2

MCF-10A [26] = test: as above
In short: as §2

MDA-MB-231 [27] = test: as above
In short: as §2

DU-4475 [28] = test: as above
In short: as §2

MDA-MB-436 [29] = test: as above
In short: as §2

HCC1937 [30] = test: as above
In short: as §2

MFM-223 [31] = test: as above
In short: as §2

BT-549 [32] = test: as above
In short: as §2

HCC1599 [33] = test: as above
In short: as §2

HCC1143 [34] = test: as above
In short: as §2

MDA-MB-468 [35] = test: as above
In short: as §2

CAL-148 [36] = test: as above
In short: as §2

SMILES	normalised response (CAL-120 [1])	normalised response (BT-474 [2])	normalised response (Hs578T [3])	normalised response (CAL-51 [4])	normalised response (HDQ-P1 [5])	normalised response (CAL-85-1 [6])	normalised response (MDA-MB-453 [7])	normalised response (MCF-10A [8])	normalised response (MDA-MB-231 [9])	normalised response (DU-4475 [10])	normalised response (MDA-MB-436 [11])	normalised response (HCC1937 [12])	normalised response (MFM-223 [13])	normalised response (BT-549 [14])	normalised response (HCC1599 [15])	normalised response (HCC1143 [16])	normalised response (MDA-MB-468 [17])	normalised response (SK-BR-3)	normalised response (CAL-148 [18])	normalised response (CAL-120 [19])	normalised response (BT-474 [20])	normalised response (Hs578T [21])	normalised response (CAL-51 [22])	normalised response (HDQ-P1 [23])	normalised response (CAL-85-1 [24])	normalised response (MDA-MB-453 [25])	normalised response (MCF-10A [26])	normalised response (MDA-MB-231 [27])	normalised response (DU-4475 [28])	normalised response (MDA-MB-436 [29])	normalised response (HCC1937 [30])	normalised response (MFM-223 [31])	normalised response (BT-549 [32])	normalised response (HCC1599 [33])	normalised response (HCC1143 [34])	normalised response (MDA-MB-468 [35])	normalised response (CAL-148 [36])
C=CC(=O)N1CCC[C@@H](n2nc(-c3ccc(Oc4ccccc4)cc3)c3c(N)ncnc32)C1 [Ibrutinib] (1000 nM)	100%	106%	106%	85.7%	68.3%	50.2%	73.6%	42.5%	105%	118%	109%	94.9%	88.4%	110%	111%	102%	80.7%	24.5%	101%	102%	83.8%	92%	87.5%	74.8%	26.8%	46.3%	76.5%	115%	97.2%	93%	94.5%	100%	92.3%	106%	111%	75.1%	86.6%
Nc1ncn([C@H]2C[C@H](O)[C@@H](CO)O2)c(=O)n1 [Decitabine] (10000 nM)	83.9%	87.4%	89.4%	82.3%	87.8%	84.5%	97.7%	83.8%	93%	86.2%	88.7%	74.9%	93.3%	75.2%	94.1%	83.6%	31.5%	77.7%	82.6%	103%	94%	123%	65.7%	110%	70%	103%	92.6%	126%	104%	73.2%	113%	90.5%	130%	113%	117%	90%	95.5%
Nc1ccccc1NC(=O)c1ccc(CNC(=O)OCc2cccnc2)cc1 [Entinostat] (10000 nM)	73.2%	42%	48.3%	31.8%	73.2%	41.7%	21.6%	82.9%	39.1%	5.86%	71.6%	67.4%	18%	31.6%	32.3%	19%	19.1%	14.2%	29.8%	88.6%	54.9%	110%	29%	102%	8.15%	90.6%	90.9%	29.8%	73.1%	38.9%	43.6%	74.4%	69.9%	75.2%	104%	-141%	46.4%
COc1cc2nccc(Oc3ccc(NC(=O)Nc4cc(C)on4)c(Cl)c3)c2cc1OC [Tivozanib] (10000 nM)	50.6%	50.3%	63.8%	70.7%	62.2%	76.6%	64.3%	42.7%	46%	91.9%	79.6%	61.6%	34.3%	64.2%	77.2%	86.2%	52.2%	70.8%	77.6%	89.6%	85.2%	21.6%	25%	93.9%	100%	104%	91.7%	77.7%	98%	104%	111%	93.8%	126%	102%	110%	134%	78.1%
C[C@H]1C[C@@H]2[C@H]([C@@H](O)C[C@@]3(C)[C@H]2CC[C@]3(O)C(=O)CO)[C@@]2(C)C=CC(=O)C=C12 [Methylprednisolone] (10000 nM)	77.7%	151%	108%	130%	89.9%	112%	96.7%	101%	146%	104%	102%	97.5%	99.6%	98.4%	103%	104%	106%	94.5%	112%	102%	99.9%	126%	119%	111%	73.1%	101%	99.1%	154%	103%	91.9%	94.8%	93.2%	111%	86.3%	121%	151%	93.7%
CC(=O)Nc1cccc(-n2c(=O)n(C3CC3)c(=O)c3c(Nc4ccc(I)cc4F)n(C)c(=O)c(C)c32)c1 [Trametinib] (250 nM)	62.2%	60.1%	64.6%	69%	57.4%	46.2%	98%	32.3%	61.9%	0.48%	79.2%	66.5%	60.2%	89%	88.3%	81.2%	82.5%	96.1%	84.3%	77.3%	101%	118%	86.8%	82.9%	31.4%	105%	60.7%	63.1%	73.2%	113%	110%	101%	119%	110%	120%	96%	86%
CCc1cncnc1N1CCN(Cc2nc3ccc(C(F)(F)F)cc3[nH]2)CC1 (10000 nM)	89%	85.8%	95.7%	49.3%	102%	91.8%	81.6%	93.8%	95%	89.9%	95.7%	82.1%	78.3%	83.9%	85.7%	90%	70%	89.5%	95.4%	99.6%	93%	72.9%	94.5%	63.1%	67.3%	99.9%	105%	118%	104%	102%	90.2%	103%	95.6%	99.2%	117%	103%	103%
N#Cc1ccc(C(c2ccc(C#N)cc2)n2cncn2)cc1 [Letrozole] (10000 nM)	98.8%	91.7%	97.7%	128%	103%	97.8%	96.8%	106%	91.5%	98.8%	102%	100%	99.8%	96.3%	85.2%	97.7%	97%	101%	101%	101%	102%	66.7%	116%	107%	94.2%	98.1%	103%	105%	101%	93.9%	94.5%	100%	102%	101%	127%	70.7%	97.9%
CC[C@H](C)C(=O)O[C@H]1C[C@H](O)C=C2C=C[C@H](C)[C@H](CC[C@@H](O)C[C@@H](O)CC(=O)O)[C@H]21 [Pravastatin] (10000 nM)	58%	50.8%	70.3%	36%	65.7%	44.8%	55.3%	67.1%	61%	41.6%	21.6%	37%	49.5%	56.4%	29.5%	42.3%	34.5%	21.6%	39.7%	101%	99.4%	115%	16.5%	97.2%	106%	94.4%	26.1%	54.3%	93.2%	-63.1%	96.1%	63.1%	90.3%	89.1%	101%	21.1%	91.6%

From the supplement of paper PMC4862054
